Assays:
CT-DNA = assay: Ethidium bromide displacement assay (fluorescence); type: binding
Protocol: DNA is one of the key target for cancer therapy. The drug molecules bind with the DNA by three major modes (i) electrostatic interactions with the DNA double helix (ii) binding to grooves of DNA (iii) intercalation between the base pairs of DNA.[25] The titration in UV was performed by increasing concentration of DNA from 10–60 μM into a fixed drug concentration (20 μM). The intra-ligand absorption bands around 290–350 nm (π–π* transition) were used in observation of the interaction of DNA and compound 7e (Fig. S3a ^†). There was a hypochromic shift with a slight blue shift in the wavelength of compound 7e was observed which concluded that complex 7e bind to DNA through intercalative binding mode.[26] […] Ethidium bromide, a nonspecific intercalator, gives a strong fluorescence while intercalating DNA base pairs. This enhanced fluorescence can be quenched by another chemical moiety which can competitively replace EtBr and binds to the same site.[27] […] The original fluorescence intensity of EtBr–DNA complex is rapidly quenched by increasing the concentration of compound 7e (Fig. S3c ^†). […]
EtBr displacement is periodically used as a diagnostic approach to determine the capability of compounds to bind with DNA [4]. EtBr emits intense fluorescence when it intercalates with CT-DNA, whereas in its free form in buffer (5 mM Tris-HCl/50mM NaCl buffer, pH 7.4) there is no apparent florescence emission. […] The binding capacity of drug complex with CT-DNA was estimated by quenching of fluorescence intensity. […]
Κapp ×[Complex]50 = ΚEtBr ×[EtBr ](3) where Kapp is the apparent binding constant of the complex, [Complex]50 is the concentration of the complex at 50% fluorescence quenching of DNA-bound ethidium bromide, KEB is the binding constant of the EB (KEtBr = 1.0 x 107 M-1), and [EB] is the concentration of ethidium bromide (8 μM). The Stern-Volmer quenching constant (K SV) has been determined quantitatively by using Stern-Volmer equation. Stern-Volmer plots of I0/I vs. [complex] were made using the corrected fluorescence data taking into account the effect of dilution. […]

[1] = Biopharmaceutical classification (BCS / BDDCS); conditions: primarily classified
[2] = Buffer stability (LC-MS/MS); type: physicochemical; conditions: pH 7.4 buffer, read-out: % Remaining in 120 min
Protocol: LC-MS/MS methods were developed for compound 7g to quantify the drug concentration and in vitro study (i.e. buffer solubility, buffer stability, metabolic stability, and permeability) in a systemic manner (Table 4). Chromatographic elution conditions were set with the use of 5 mM ammonium formate containing 0.1% formic acid and acetonitrile containing 0.1% formic acid with C8, Kromasil, and 4.6 × […] as a stationary phase (Fig. S5a and b ^†). […] For the data analysis, % accuracy of compound 7g was calculated and it was soluble up to 25 μM (Fig. 3, eqn (7) ^†).
The in vitro solubility and stability of 7g were evaluated in pH 7.4 buffer. The buffer solubility and stability studies were conducted at six different concentrations ranging from 3.13 to 100 μM. For the data analysis, % stability of compound 7g at 120 min was calculated with respect to 0 min time point samples and it was stable up to 2 hours in pH 7.4 buffers. Data analysis was performed through the eqn (8) ^† and was tabulated (Table 4). Compound 7g found to be stable up to 2 hours with % remaining of 71% in pH 7.4.

Row | SMILES | K sv, Stern–Volmer quenching constant (CT-DNA; EtBr–DNA fluorescence quenching) [M⁻¹] | [7e]50, concentration at 50% fluorescence quenching of DNA-bound ethidium bromide (CT-DNA; [DNA] = 120 μM, [EtBr] = 8 μM, Tris HCl/NaCl buffer pH 7.2) [µM] | K app, apparent DNA binding constant (CT-DNA; competitive displacement of EtBr, fluorescence) [M⁻¹] | BCS class [1] | BDDCS class [1] | remaining at 2 h, 3.13 μM ([2]; 3.13 μM) [%] | remaining at 2 h, 6.25 μM ([2]; 6.25 μM) [%] | remaining at 2 h, 12.5 μM ([2]; 12.50 μM) [%] | remaining at 2 h, 25 μM ([2]; 25.00 μM) [%] | remaining at 2 h, 50 μM ([2]; 50.00 μM) [%] | remaining at 2 h, 100 μM ([2]; 100.00 μM) [%]
1 | Clc1cc2nc(COc3ccccc3-c3nc4ccccc4s3)c(COc3ccccc3-c3nc4ccccc4s3)nc2cc1Cl [Compound 7e] | 5500 | 140 | 570000 |  |  |  |  |  |  |  | 
2 | COc1ccc2nc(COc3ccccc3-c3nc4ccccc4s3)c(COc3ccccc3-c3nc4ccccc4s3)nc2c1 [Compound 7g, 2,2'-((((6-methoxyquinoxaline-2,3-diyl)bis(methylene))bis(oxy))bis(2,1-phenylene))bis(benzo[d]thiazole)] |  |  |  | BCS class 4 | BDDCS class 4 | 59 | 68 | 81 | 110 | 110 | 71

From publication PMC9061853, “Luminescent bis(benzo[d]thiazolyl)quinoxaline: facile synthesis, nucleic acid and protein BSA interaction, live-cell imaging, biopharmaceutical research and cancer theranostic application” (RSC Advances, 2019)
